Data set [1] is described as follows: Solubility of glucagon analogs (UV absorbance).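 On all read-outs here: peptide stock at 3 mg/ml in 0.01 M HCl, absorbance at 280 nm read before neutralization and again on the diluted supernatant after centrifugation.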 The class given is physicochemical. The note with it: for solubility: 0.01M HCl solution adjusted to pH 7 with Na2HPO4, pH 7, pH adjusted to 7 with Na2HPO4, incubated overnight at 4° C.; for ratio (solubility relative to reference compound 16): relative to compound 16.
Experimental: A solution of 3 mg/ml of glucagon (or analog) was prepared in a 0.01M HCl solution. Then 0.1 ml of the stock solution was diluted to 1 ml with HCl (0.01M) and the UV absorbance measured (to 280 nm) with nanodrop UV spectrometer. The pH of the remaining stock solution was adjusted to 7 using Na2HPO4, and the solution was incubated overnight at 4° C. The solution was then centrifuged three times (5 minutes, 4000 rotations per minute), 0.1 ml of the supernatant was removed and diluted to 1 ml with HCl solution (0.01M).
The final UV absorbance was measured.
The target in data set [2] is T1, human glucagon receptor (Homo sapiens, UniProt P47871).
T1 construct: expressed in transfected cells; host or cells: CHO cells
In words: Glucagon functional assay: agonist activity by cAMP production (HTRF) in transfected CHO cells. The class given is cell-based. Particulars: cAMP production, transfected CHO cells, 10 minutes at 37° C. The procedure:
Functional Assay to Examine Bioactivity of Glucagon Receptor Agonists. Evaluation of the agonist activity of compounds at the human glucagon receptor expressed in transfected CHO cells was examined by measuring their effects on cAMP production using the HTRF detection method. […] For stimulated control measurement, separate assay wells contain 100 nM glucagon were utilized.
Following incubation, the cells were lysed and the fluorescence acceptor (D2-labeled cAMP) and fluorescence donor (anti-cAMP antibody labeled with europium cryptate) were added. […] The results are expressed as a percent of the control response to 100 nM glucagon. The standard reference agonist is glucagon, which was tested in each experiment at several concentrations to generate a concentration-response curve from which its EC50 value was calculated.
HTRF (Homogeneous Time-Resolved Fluorescence) principle. The HTRF technology is based on time resolved fluorescence energy transfer (TR-FRET), which occurs between long-lived fluorophore Europium or Terbium Cryptates, and EuK or Tb respectively, as a donor and the allophycocyanin XL665, d2 or Red as acceptor. Many compounds and proteins present in biological fluids or serum are naturally fluorescent, and the use of conventional, prompt fluorescence leads to serious limitations in assay sensitivity. The use of long-lived fluorophore combined with time-resolved detection (a delay between excitation and emission detection) minimizes prompt fluorescence interference.

In brackets after ≈: the same amount, converted by molar mass. Numbered stars: 1 amine (or outer) side, 2 acyl side, 3 side chain; on linkers, the order of the positions; unused ones are H or OH. Bridge positions count the residues as written; N and C are the ends. Square brackets hold non-standard residues; d marks the D form. Peptide text beside a SMILES is read from it. I, II: the chains in the order shown. X1 = C[C@@H](CNC(=O)[*:1])N[*:2]; Nle = CCCC[C@H](N)C(=O)O

T1 sequence (P47871 26-477): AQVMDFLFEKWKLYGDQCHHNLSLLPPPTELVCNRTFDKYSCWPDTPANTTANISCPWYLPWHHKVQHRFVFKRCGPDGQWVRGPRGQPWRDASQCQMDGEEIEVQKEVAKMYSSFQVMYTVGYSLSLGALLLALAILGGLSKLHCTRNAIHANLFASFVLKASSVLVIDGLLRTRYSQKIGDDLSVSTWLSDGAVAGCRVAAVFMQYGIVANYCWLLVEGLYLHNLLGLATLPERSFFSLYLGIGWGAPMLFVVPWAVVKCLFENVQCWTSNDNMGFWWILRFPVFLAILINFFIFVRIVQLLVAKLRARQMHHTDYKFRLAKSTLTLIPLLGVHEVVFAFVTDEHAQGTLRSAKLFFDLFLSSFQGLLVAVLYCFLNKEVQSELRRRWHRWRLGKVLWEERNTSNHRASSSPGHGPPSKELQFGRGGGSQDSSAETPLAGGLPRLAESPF

On to `CCCC[C@H](NC(=O)[C@H](CC(C)C)NC(=O)[C@H](Cc1c[nH]c2ccccc12)NC(=O)[C@H](CCC(N)=O)NC(=O)[C@@H](NC(=O)[C@H](Cc1ccccc1)NC(=O)[C@H](CC(=O)O)NC(=O)[C@H](CCC(N)=O)NC(=O)[C@H](C)NC(=O)[C@H](CCCNC(=N)N)NC(=O)[C@H](CCCNC(=N)N)NC(=O)[C@H](CO)NC(=O)[C@H](CC(=O)O)NC(=O)NC[C@H](C)NC(=O)[C@H](Cc1ccc(O)cc1)NC(=O)[C@H](CCCCN)NC(=O)[C@H](CO)NC(=O)[C@H](Cc1ccc(O)cc1)NC(=O)[C@H](CC(=O)O)NC(=O)[C@H](CO)NC(=O)[C@@H](NC(=O)[C@H](Cc1ccccc1)NC(=O)[C@@H](NC(=O)CNC(=O)[C@H](CCC(N)=O)NC(=O)[C@H](CO)NC(=O)[C@@H](N)Cc1c[nH]cn1)[C@@H](C)O)[C@@H](C)O)C(C)C)C(=O)N[C@@H](CC(N)=O)C(=O)N[C@H](C(=O)O)[C@@H](C)O` [Compound 51] (I: DSRRAQDFVQWL[Nle]NT-OH / II: H-HSQGTFTSDYSKY; linker I:N-II:C via X1; C-terminus assumed), for which, in data set [1], the solubility worked out at 560 µg/mL (≈ 162 µM) and the “ratio (solubility relative to reference compound 16)” value worked out at 2.2. The EC50 in data set [2] was 68 nM.
For `CCCC[C@H](NC(=O)NC[C@H](C)NC(=O)[C@H](Cc1c[nH]c2ccccc12)NC(=O)[C@H](CCC(N)=O)NC(=O)[C@@H](NC(=O)[C@H](Cc1ccccc1)NC(=O)[C@H](CC(=O)O)NC(=O)[C@H](CCC(N)=O)NC(=O)[C@H](C)NC(=O)[C@H](CCCNC(=N)N)NC(=O)[C@H](CCCNC(=N)N)NC(=O)[C@H](CO)NC(=O)[C@H](CC(=O)O)NC(=O)[C@H](CC(C)C)NC(=O)[C@H](Cc1ccc(O)cc1)NC(=O)[C@H](CCCCN)NC(=O)[C@H](CO)NC(=O)[C@H](Cc1ccc(O)cc1)NC(=O)[C@H](CC(=O)O)NC(=O)[C@H](CO)NC(=O)[C@@H](NC(=O)[C@H](Cc1ccccc1)NC(=O)[C@@H](NC(=O)CNC(=O)[C@H](CCC(N)=O)NC(=O)[C@H](CO)NC(=O)[C@@H](N)Cc1c[nH]cn1)[C@@H](C)O)[C@@H](C)O)C(C)C)C(=O)N[C@@H](CC(N)=O)C(=O)N[C@H](C(=O)O)[C@@H](C)O` [Compound 58], in that order: 1510 µg/mL (≈ 437 µM), 6.0 and 35 nM.
For `CCCC[C@H](NC(=O)[C@H](CC(C)C)NC(=O)[C@H](Cc1c[nH]c2ccccc12)NC(=O)[C@H](CCC(N)=O)NC(=O)[C@@H](NC(=O)[C@H](Cc1ccccc1)NC(=O)NC[C@H](CC(=O)O)NC(=O)[C@H](CCC(N)=O)NC(=O)[C@H](C)NC(=O)[C@H](CCCNC(=N)N)NC(=O)[C@H](CCCNC(=N)N)NC(=O)[C@H](CO)NC(=O)[C@H](CC(=O)O)NC(=O)[C@H](CC(C)C)NC(=O)[C@H](Cc1ccc(O)cc1)NC(=O)[C@H](CCCCN)NC(=O)[C@H](CO)NC(=O)[C@H](Cc1ccc(O)cc1)NC(=O)[C@H](CC(=O)O)NC(=O)[C@H](CO)NC(=O)[C@@H](NC(=O)[C@H](Cc1ccccc1)NC(=O)[C@@H](NC(=O)CNC(=O)[C@H](CCC(N)=O)NC(=O)[C@H](CO)NC(=O)[C@@H](N)Cc1c[nH]cn1)[C@@H](C)O)[C@@H](C)O)C(C)C)C(=O)N[C@@H](CC(N)=O)C(=O)N[C@H](C(=O)O)[C@@H](C)O` [Compound 61], in that order: 740 µg/mL (≈ 212 µM), 2.9 and 0.1 nM.
For `CCCC[C@H](NC(=O)[C@H](CC(C)C)NC(=O)[C@H](Cc1c[nH]c2ccccc12)NC(=O)NC[C@H](CCC(N)=O)NC(=O)[C@@H](NC(=O)[C@H](Cc1ccccc1)NC(=O)[C@H](CC(=O)O)NC(=O)[C@H](CCC(N)=O)NC(=O)[C@H](C)NC(=O)[C@H](CCCNC(=N)N)NC(=O)[C@H](CCCNC(=N)N)NC(=O)[C@H](CO)NC(=O)[C@H](CC(=O)O)NC(=O)[C@H](CC(C)C)NC(=O)[C@H](Cc1ccc(O)cc1)NC(=O)[C@H](CCCCN)NC(=O)[C@H](CO)NC(=O)[C@H](Cc1ccc(O)cc1)NC(=O)[C@H](CC(=O)O)NC(=O)[C@H](CO)NC(=O)[C@@H](NC(=O)[C@H](Cc1ccccc1)NC(=O)[C@@H](NC(=O)CNC(=O)[C@H](CCC(N)=O)NC(=O)[C@H](CO)NC(=O)[C@@H](N)Cc1c[nH]cn1)[C@@H](C)O)[C@@H](C)O)C(C)C)C(=O)N[C@@H](CC(N)=O)C(=O)N[C@H](C(=O)O)[C@@H](C)O` [Compound 64], in that order: 940 µg/mL (≈ 269 µM), 3.7 and 0.16 nM.
For the compound `CCCC[C@H](NC(=O)[C@H](CC(C)C)NC(=O)[C@H](Cc1c[nH]c2ccccc12)NC(=O)[C@H](CCC(N)=O)NC(=O)[C@@H](NC(=O)[C@H](Cc1ccccc1)NC(=O)[C@H](CC(=O)O)NC(=O)NC[C@H](CCC(N)=O)NC(=O)[C@H](C)NC(=O)[C@H](CCCNC(=N)N)NC(=O)[C@H](CCCNC(=N)N)NC(=O)[C@H](CO)NC(=O)[C@H](CC(=O)O)NC(=O)[C@H](CC(C)C)NC(=O)[C@H](Cc1ccc(O)cc1)NC(=O)[C@H](CCCCN)NC(=O)[C@H](CO)NC(=O)[C@H](Cc1ccc(O)cc1)NC(=O)[C@H](CC(=O)O)NC(=O)[C@H](CO)NC(=O)[C@@H](NC(=O)[C@H](Cc1ccccc1)NC(=O)[C@@H](NC(=O)CNC(=O)[C@H](CCC(N)=O)NC(=O)[C@H](CO)NC(=O)[C@@H](N)Cc1c[nH]cn1)[C@@H](C)O)[C@@H](C)O)C(C)C)C(=O)N[C@@H](CC(N)=O)C(=O)N[C@H](C(=O)O)[C@@H](C)O` [Compound 60], in data set [1], the solubility is 830 µg/mL (≈ 238 µM) and the “ratio (solubility relative to reference compound 16)” value stood at 3.3. This compound had an EC50 in data set [2] of 36 nM.
For `CCCC[C@H](NC(=O)[C@H](CC(C)C)NC(=O)[C@H](Cc1c[nH]c2ccccc12)NC(=O)[C@H](CCC(N)=O)NC(=O)[C@@H](NC(=O)[C@H](Cc1ccccc1)NC(=O)[C@H](CC(=O)O)NC(=O)[C@H](CCC(N)=O)NC(=O)NC[C@H](C)NC(=O)[C@H](CCCNC(=N)N)NC(=O)[C@H](CCCNC(=N)N)NC(=O)[C@H](CO)NC(=O)[C@H](CC(=O)O)NC(=O)[C@H](CC(C)C)NC(=O)[C@H](Cc1ccc(O)cc1)NC(=O)[C@H](CCCCN)NC(=O)[C@H](CO)NC(=O)[C@H](Cc1ccc(O)cc1)NC(=O)[C@H](CC(=O)O)NC(=O)[C@H](CO)NC(=O)[C@@H](NC(=O)[C@H](Cc1ccccc1)NC(=O)[C@@H](NC(=O)CNC(=O)[C@H](CCC(N)=O)NC(=O)[C@H](CO)NC(=O)[C@@H](N)Cc1c[nH]cn1)[C@@H](C)O)[C@@H](C)O)C(C)C)C(=O)N[C@@H](CC(N)=O)C(=O)N[C@H](C(=O)O)[C@@H](C)O` [Compound 54], in that order: 630 µg/mL (≈ 180 µM), 2.5 and 32 nM.
For `CCCC[C@H](NC(=O)[C@H](CC(C)C)NC(=O)[C@H](Cc1c[nH]c2ccccc12)NC(=O)[C@H](CCC(N)=O)NC(=O)NC[C@@H](NC(=O)[C@H](Cc1ccccc1)NC(=O)[C@H](CC(=O)O)NC(=O)[C@H](CCC(N)=O)NC(=O)[C@H](C)NC(=O)[C@H](CCCNC(=N)N)NC(=O)[C@H](CCCNC(=N)N)NC(=O)[C@H](CO)NC(=O)[C@H](CC(=O)O)NC(=O)[C@H](CC(C)C)NC(=O)[C@H](Cc1ccc(O)cc1)NC(=O)[C@H](CCCCN)NC(=O)[C@H](CO)NC(=O)[C@H](Cc1ccc(O)cc1)NC(=O)[C@H](CC(=O)O)NC(=O)[C@H](CO)NC(=O)[C@@H](NC(=O)[C@H](Cc1ccccc1)NC(=O)[C@@H](NC(=O)CNC(=O)[C@H](CCC(N)=O)NC(=O)[C@H](CO)NC(=O)[C@@H](N)Cc1c[nH]cn1)[C@@H](C)O)[C@@H](C)O)C(C)C)C(=O)N[C@@H](CC(N)=O)C(=O)N[C@H](C(=O)O)[C@@H](C)O` [Compound 63], in that order: 1280 µg/mL (≈ 366 µM), 5.1 and 30 nM.

Values taken from US11267861B2, “Peptide-oligourea foldamer compounds and methods of their use” (UREKA SARL, priority 2016, dated 2022).
